Data from ChEMBL document CHEMBL5725873, “Heteroaryl compounds and their use as therapeutic drugs” (2018).

Molecular target: T1, Tyrosine-protein kinase Mer (Homo sapiens, UniProt Q12866)
T1 sequence (Q12866 whole entry): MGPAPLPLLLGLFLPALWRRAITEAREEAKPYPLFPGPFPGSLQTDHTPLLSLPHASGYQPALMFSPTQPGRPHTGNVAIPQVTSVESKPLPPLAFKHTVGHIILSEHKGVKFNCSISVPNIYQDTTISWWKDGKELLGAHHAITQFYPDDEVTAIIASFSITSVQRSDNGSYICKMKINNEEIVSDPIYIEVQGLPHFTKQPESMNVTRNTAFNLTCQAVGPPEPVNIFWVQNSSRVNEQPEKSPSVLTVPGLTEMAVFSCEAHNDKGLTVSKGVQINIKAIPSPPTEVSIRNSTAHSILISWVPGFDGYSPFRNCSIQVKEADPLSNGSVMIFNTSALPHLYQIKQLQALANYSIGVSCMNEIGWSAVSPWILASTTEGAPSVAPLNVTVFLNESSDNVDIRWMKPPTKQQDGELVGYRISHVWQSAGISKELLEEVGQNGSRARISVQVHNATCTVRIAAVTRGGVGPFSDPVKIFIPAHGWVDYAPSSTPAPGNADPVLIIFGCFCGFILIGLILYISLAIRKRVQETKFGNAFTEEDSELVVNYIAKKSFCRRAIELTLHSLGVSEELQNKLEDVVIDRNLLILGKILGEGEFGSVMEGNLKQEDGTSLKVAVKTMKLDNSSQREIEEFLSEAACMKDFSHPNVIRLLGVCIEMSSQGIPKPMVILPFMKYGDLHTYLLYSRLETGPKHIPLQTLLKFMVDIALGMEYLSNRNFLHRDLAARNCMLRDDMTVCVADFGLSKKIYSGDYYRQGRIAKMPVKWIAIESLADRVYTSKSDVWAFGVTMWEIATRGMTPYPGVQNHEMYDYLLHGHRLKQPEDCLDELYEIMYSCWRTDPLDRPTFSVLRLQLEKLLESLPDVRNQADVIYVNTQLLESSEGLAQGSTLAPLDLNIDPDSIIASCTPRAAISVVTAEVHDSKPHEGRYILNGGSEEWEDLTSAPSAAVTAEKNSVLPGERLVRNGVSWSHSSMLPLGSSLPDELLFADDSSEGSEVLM
Assay: TBD: TBD

Compound	IC50 [nM]
CN1CCN(Cc2ccc(-c3ccc(CO[C@H]4CCC[C@@H]4NC(=O)c4cc(-c5ccc(Cl)c(F)c5)cnc4N)cc3)cc2)CC1	< 10
C[C@@H](CNC(=O)c1cc(-c2cnn(C)c2)cnc1N)OCc1ccc(Cl)c(Cl)c1	> 1000
